Literature values as cited in Sander's compilation of Henry's law constants (doi:10.1080/01483918608076621).

Test: Henry solubility constant Hcp at 298.15 K (mol/(m3 Pa))
Conditions: reference: Janini and Quaddora (1986); cited value

In order of rising “Henry solubility constant Hcp” value:
1. CC(=O)OC(C)C [2-propyl ethanoate]  0.029
2. CC(C)=O [propanone]  0.03
3. CCCCOC(C)=O [butyl ethanoate]  0.035
4. CCCOC(C)=O [propyl ethanoate]  0.044
5. CCOC(C)=O [ethyl ethanoate]  0.047
6. CCCC=O [butanal]  0.054
7. CCCC(C)=O [2-pentanone]  0.091
8. CCC(=O)CC [3-pentanone]  0.2
9. CCCCCC(C)=O [2-heptanone]  0.35
10. Cc1ccccc1O [1-hydroxy-2-methylbenzene]  2.6
11. Cc1ccc(O)cc1 [1-hydroxy-4-methylbenzene]  5.2
12. Cc1cccc(O)c1 [1-hydroxy-3-methylbenzene]  6.1
